Reference: patent publication US20090275497A1, “METHOD FOR IDENTIFYING MODULATORS OF THE ACTIVITY OF ION-CHANNELS RECEPTORS” (CENTRE NATIONAL DE LA RECHERCHE SCIENTIFIQUE (CNRS), priority 2004, published 2009)

Assays:
[1] = test system: oocyte not expressing P2X and GABA receptors; test: Calcium green fluorescence recording, oocytes expressing no receptors; type: cell-based, Xenopus; settings: calcium green probe, FIG. 1
Experimental: (§1) Then, using video-microscopy (Nikon), the fluorescence emitted by oocytes maintained in a standard solution (Ringer solution containing 1.8 mM calcium chloride), perfused at 3 ml/min, has been recorded. […] Variations in fluorescence were analysed using IpLab software.

rat P2X2 receptors = molecular target: T1, rat P2X2 receptors (Rattus norvegicus, UniProt P49653); test: Calcium green fluorescence recording, oocytes expressing P2X2 receptors alone; type: cell-based; settings: oocytes expressing only P2X2 receptors, FIG. 2; for fluorescence (calcium influx) on application of the substance alone: calcium green probe
T1 construct: expressed in transfected cells; host or cells: Xenopus oocytes (nuclear cDNA injection)
T1 sequence (P49653 1-472): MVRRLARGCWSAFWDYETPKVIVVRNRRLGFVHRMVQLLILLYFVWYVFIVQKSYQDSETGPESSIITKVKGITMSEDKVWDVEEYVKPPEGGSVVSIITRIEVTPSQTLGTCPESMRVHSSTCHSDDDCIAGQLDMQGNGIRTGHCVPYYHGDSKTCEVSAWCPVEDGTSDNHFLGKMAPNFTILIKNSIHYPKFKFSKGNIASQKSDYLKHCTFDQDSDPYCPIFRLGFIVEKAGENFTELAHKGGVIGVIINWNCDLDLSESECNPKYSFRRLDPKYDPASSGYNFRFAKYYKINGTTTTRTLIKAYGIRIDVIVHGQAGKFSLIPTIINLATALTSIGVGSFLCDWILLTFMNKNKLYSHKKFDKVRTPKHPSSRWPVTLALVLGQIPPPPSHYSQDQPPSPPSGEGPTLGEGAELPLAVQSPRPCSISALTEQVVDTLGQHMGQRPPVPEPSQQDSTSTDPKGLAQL
Experimental: as §1

[2] = test system: P2X2 and GABA-A receptors (rat GABA-A alpha2 beta3); type: cell-based; settings: for fluorescence of the calcium probe on application of the substance alone: 100 μM, oocytes co-expressing P2X2 and GABA-A receptors, resting potential
Experimental: (§2) Variations in fluorescence were analysed using IpLab software.

[3] = molecular target: T2, P2X2 and GABA-A receptors (rat GABA-A alpha2 beta3) (Rattus norvegicus, UniProt P23576+P63079); type: cell-based
T2 construct: expressed in transfected cells; host or cells: Xenopus oocytes (nuclear cDNA injection)
Experimental: as §2

[4] = oocyte co-expressing GABA-A and P2X2 receptors, FIG. 4

T2 sequence (P23576 29-451): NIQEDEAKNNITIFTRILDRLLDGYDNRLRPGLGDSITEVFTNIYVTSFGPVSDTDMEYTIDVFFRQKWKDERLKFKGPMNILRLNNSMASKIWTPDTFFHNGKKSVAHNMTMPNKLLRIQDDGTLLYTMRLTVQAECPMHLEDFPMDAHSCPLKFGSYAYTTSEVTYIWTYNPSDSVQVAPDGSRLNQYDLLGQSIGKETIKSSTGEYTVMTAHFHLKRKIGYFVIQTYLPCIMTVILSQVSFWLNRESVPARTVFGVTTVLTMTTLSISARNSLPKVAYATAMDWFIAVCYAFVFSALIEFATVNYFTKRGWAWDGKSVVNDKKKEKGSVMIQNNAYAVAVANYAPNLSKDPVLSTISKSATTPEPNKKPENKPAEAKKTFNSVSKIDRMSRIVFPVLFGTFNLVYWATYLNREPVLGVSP
T2 sequence (P63079 26-473): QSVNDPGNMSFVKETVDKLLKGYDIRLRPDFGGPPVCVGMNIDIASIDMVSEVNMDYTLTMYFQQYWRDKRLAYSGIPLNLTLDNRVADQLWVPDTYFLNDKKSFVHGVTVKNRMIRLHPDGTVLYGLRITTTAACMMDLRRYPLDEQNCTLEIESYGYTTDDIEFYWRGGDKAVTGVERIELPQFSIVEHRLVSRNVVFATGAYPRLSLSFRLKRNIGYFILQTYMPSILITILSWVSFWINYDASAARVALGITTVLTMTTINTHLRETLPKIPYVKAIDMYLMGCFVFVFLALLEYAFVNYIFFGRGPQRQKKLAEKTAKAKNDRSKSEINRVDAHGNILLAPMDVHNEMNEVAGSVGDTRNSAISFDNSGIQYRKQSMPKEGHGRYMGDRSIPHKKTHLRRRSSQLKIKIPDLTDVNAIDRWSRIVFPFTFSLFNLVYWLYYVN

| Compound | modification of the fluorescence on application [1] | fluorescence (calcium influx) on application of the substance alone (rat P2X2 receptors) | fluorescence of the calcium probe on application of the substance alone [2] | effect of GABA on the increase in fluorescence induced by ATP (rat P2X2 receptors; co-application ATP+GABA) | percentage inhibition of the ATP calcium response ([3]; co-application ATP+GABA 100 μM of each, depends on expression ratio of P2X and GABA receptors) | fluorescence intensity when GABA is applied at the peak of the ATP response [3, 4] | fluorescence when application of GABA is stopped during co-application of ATP and GABA [3, 4] | calcium response on co-application ATP+GABA compared with ATP alone ([2]; ATP+GABA 100 μM of each, FIG. 3) |
| --- | --- | --- | --- | --- | --- | --- | --- | --- |
| Nc1ncnc2c1ncn2[C@@H]1O[C@H](COP(=O)(O)OP(=O)(O)OP(=O)(O)O)[C@@H](O)[C@H]1O [ATP] | No modification | transient increase in fluorescence | marked transient increase | – | – | – | – | – |
| NCCCC(=O)O [GABA, gamma-Aminobutyric acid] | No modification | no effect | does not modify fluorescence intensity | not altered | 20-25% | decrease in fluorescence intensity | increase in fluorescence | lower calcium response |
